Series [1] addresses T1, immobilized human nectin-4 (Homo sapiens, UniProt Q96NY8).
T1 construct: close to the value determined for the complete extracellular domain of nectin-4 (0.94 nM); purchased R&D Systems 2659-N4
T1 sequence (Q96NY8 32-349 limits assumed): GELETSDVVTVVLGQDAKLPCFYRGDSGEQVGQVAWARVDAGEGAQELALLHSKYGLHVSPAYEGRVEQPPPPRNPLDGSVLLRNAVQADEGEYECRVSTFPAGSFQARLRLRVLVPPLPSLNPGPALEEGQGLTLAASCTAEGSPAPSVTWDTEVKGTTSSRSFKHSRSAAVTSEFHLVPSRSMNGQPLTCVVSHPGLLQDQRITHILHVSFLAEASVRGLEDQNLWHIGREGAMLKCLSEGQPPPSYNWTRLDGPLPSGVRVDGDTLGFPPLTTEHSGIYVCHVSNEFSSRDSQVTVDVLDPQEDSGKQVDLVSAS
Nature of the series: SPR analysis of binding kinetics. To be noted: ±SEM; for kon: HBS-P+ pH 7.4, 25 °C, read-out: k on (SPR, *10^6 M^–1 s^–1); for koff: pH 7.4, HBS-P+ pH 7.4, 25 °C, read-out: k off (SPR, *10^–3 s^–1).
Experimental: For this purpose, recombinant human nectin-4 was covalently immobilized on a CM5 sensor chip by EDC/NHS coupling. For analyses, the buffer composition (HBS-P+, pH 7.4) was similar to that of the FA assay; however, DMSO was completely omitted (1% DMSO for the FA assay).
The SPR analyses were carried out on a Biacore T200 (GE Healthcare, Chicago, IL, USA) at 25 °C using CM5 sensor chips (Cytiva) and HBS-P+ as running buffer (Cytiva) at a flow of 30 μL/min unless otherwise specified and a data collection rate of 10 Hz. All flow cells (FC) were normalized, and functionalization was performed using an amine coupling Kit (Cytiva). […] Binding analyses were performed by a single-cycle kinetic on both FC. Two start-up cycles were performed at the beginning of each experimental set, comprising the injection of bicyclic peptide (50 nM) and analysis on both FC, followed by regeneration. Binding analysis for the bicyclic peptides was performed by consecutive injection of five increasing concentrations (120 s contact time for each concentration), followed by 600 s dissociation time and analysis on both FC. The regeneration was performed by sequential injection of 10 mM NaOAc (pH 5.5) for 60 s, washing the needle using HBS-P+, injection of 10 mM NaOAc (pH 5.5) for 60 s, 600 s waiting, four injections of HBS-P+ (60 s), and a final 600 s waiting for stabilization. Blank runs using only buffer (HBS-P+) instead of the sample were carried out to obtain double-referenced chromatograms. Binding analyses were performed unless otherwise stated in a concentration range between 0.16–100 nM and 1.6–1000 nM (5-fold dilution series) and analyzed in triplicate. The data were analyzed using the Biacore Evaluation software 3.2.1. […] Data were fitted to a 1:1 binding model.

Series [2] in a line: n-Octanol/PBS distribution coefficient (logD 7.4). It counts as physicochemical. As to the method: The determination of logD 7.4 was performed in triplicate. A sample of the ^64Cu/^68Ga-labeled compound containing ≈1 MBq in a volume of 1 μL was added to a 1.5 mL Eppendorf tube containing 400 μL of PBS (pH 7.4) and 400 μL of n-Octanol (the phases were presaturated with each other). The tube was vortexed vigorously for 1 min and then centrifuged at 16,100g for 4 min to separate the phases. For sampling from the aqueous phase, the pipette tip was discharged while passing through the octanol layer. Then, the sample was taken within the aqueous phase. Any residual liquid was carefully removed by moving the tip along the inner wall of an Eppendorf tube. The radioactivity in a defined volume of each layer was measured (ISOMED 2100). The distribution coefficient was expressed as the logarithm of the ratio of counts per minute (cpm) measured in the n-Octanol phase to the cpm measured in the PBS phase.

Series [3] has as its target T2, recombinant human nectin-4 (Homo sapiens, UniProt Q96NY8).
T2 construct: close to the value determined for the complete extracellular domain of nectin-4 (0.94 nM); purchased R&D Systems 2659-N4
T2 sequence (Q96NY8 32-349 limits assumed): T1 sequence (Q96NY8 32-349 limits assumed)
Kind of series: FA-based competitive binding assay with probe 1a. To be noted: for Hill coefficient n: competitive binding curve, variable slope.

The subject of the next series is HT-1376 cells. Nature of the series: Saturation binding assay on intact cells. It counts as cell-based, human. To be noted: ^64Cu-labeled ligand, intact HT-1376 cells, 60 min, PBS wash; apparent; ±SD. As to the method:
For the saturation binding assay, total and nonspecific binding were determined as described above using 10 different radioligand concentrations ([…]) prepared by serial 1:1 dilution. Plots of “total binding” = f(radioligand) were analyzed by nonlinear regressions using the model of “one site-total, accounting for ligand depletion” as implemented in GraphPad Prism, and Plots of “nonspecific binding” = f(radioligand) were analyzed by linear regressions.

A short description of series [4]: Chromatographic hydrophobicity index at immobilized artificial membrane (CHI IAM7.4) by HPLC. Type of series: physicochemical. Particulars: nonlabeled peptide, pH 7.4. As to the method:
Consequently, the CHI IAM7.4 values indicate that unfavorable pharmacokinetic behavior due to nonspecific binding is not to be expected.
All commercial reagents and solvents were used without further purification, unless otherwise specified. […] The purity of compound 5, which bears selenomethionine, was lower due to the lability to oxidation (as discussed above). The HPLC-based determination of chromatographic hydrophobicity indices at an immobilized artificial membrane was performed as previously described according to the method developed by Valko et al.

A short description of series [5]: Small animal PET/CT imaging. Particulars: mouse, in vivo. Also noted: species or system mice. The procedure, abridged:
(§1)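 NMRI nude mice bore subcutaneous HT-1376 xenografts (5 × 10^6 cells in 50% Matrigel), imaged at ~200 mm^3 tumour volume. Radioligand (molar activity 25 MBq/nmol; ~9 MBq, ≈0.46 nmol) injected i.v. via tail vein, with 75 nmol blocking substance co-injected for blocking; dynamic 2 h PET from injection plus CT for attenuation correction.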

A short description of series [6]: Oxidation stability in H2O2 (radio-HPLC). As to the method:
To avoid a too rapid degradation of radiolabeled peptides, a low H2O2 concentration of 0.0012% was chosen. […] In this context, there are three further thioether functionalities in each peptide due to the cyclization of the Cys residues with TATA. In Figure , the curves for the time-dependent degradation of the intact radioligands are depicted, from which the respective half-lives were calculated.
The stability toward oxidizing conditions was assessed with H2O2. For this purpose, the radioligands (2 nmol, 48 μL of labeling mixture) were treated with H2O2 (2 μL of 0.03%, final concentration of 0.0012%) at ambient temperature. At distinct time points (3, 5, and 7 h), an aliquot of 2 μL was withdrawn and diluted with 48 μL of a mixture named “Supersol,” which consists of 20% ethanol, 0.5% Triton X-100, 5 mM EDTA, 0.5 mM o-phenanthroline, and 0.1% saponin. […] The resulting solutions were analyzed by radio-HPLC (same system as that used for analyzing the ^64Cu-labelings).

Series [7] has as its system HT-1376-derived tumor xenograft model. Nature of the series: Small animal PET/CT imaging. Also noted: species or system mice. To be noted: mouse, in vivo. The method, boiled down: as §1

Like-named read-outs stand apart in the source and are kept apart here. Numbered stars: 1 amine (or outer) side, 2 acyl side, 3 side chain; on linkers, the order of the positions; unused ones are H or OH. Bridge positions count the residues as written; N and C are the ends. Square brackets hold non-standard residues; d marks the D form. Peptide text beside a SMILES is read from it. * marks the point of attachment. TATA = O=C(CC[*:1])N1CN(C(=O)CC[*:2])CN(C(=O)CC[*:3])C1; X1 = O=C(O)CN1CCN(CC(=O)O)CCN([C@H](CCC(=O)*)C(=O)O)CC1; 1Nal = N[C@@H](Cc1cccc2ccccc12)C(=O)O; 2Nal = N[C@@H](Cc1ccc2ccccc2c1)C(=O)O; Hyp = O=C(O)[C@@H]1C[C@@H](O)CN1; hArg = N=C(N)NCCCC[C@H](N)C(=O)O; SeMet = C[Se]CC[C@H](N)C(=O)O; Nle = CCCC[C@H](N)C(=O)O

In the case of `CSCC[C@@H]1NC(=O)[C@@H]2CSCCC(=O)N3CN(CN(C3)C(=O)CCSC[C@H](NC(=O)CC[C@H](C(=O)O)N3CCN(CC(=O)O)CCN(CC(=O)O)CC3)C(=O)N3CCC[C@H]3C(=O)N[C@@H](Cc3ccc4ccccc4c3)C(=O)N[C@H](CC(=O)O)C(=O)N2)C(=O)CCSC[C@@H](C(N)=O)NC(=O)[C@H](Cc2c[nH]c3ccccc23)NC(=O)[C@@H]2C[C@@H](O)CN2C(=O)[C@@H]2CCCN2C(=O)[C@H]([C@@H](C)O)NC(=O)[C@H](CO)NC(=O)[C@H](Cc2c[nH]c3ccccc23)NC(=O)[C@H](CC(=O)O)NC(=O)[C@H](CCCNC(=N)N)NC1=O` [8a] (X1-CP[2Nal][dD]CMRDWSTP[Hyp]WC-NH2; linker 1-5-15 via TATA), in series [1], the kon came to 680000 M⁻¹ s⁻¹ and the koff is 0.0433 s⁻¹. The logD in series [2] (pH 7.4, logD 7.4) is -2.48. Also, the “fold lower binding affinity compared to 1e” value in series [3] (FA K d ratio) is given as 30 fold. The Hill coefficient n in series [3] is 0.99. The Kd in the series with HT-1376 cells was determined as 51.7 nM. Also, the “CHI IAM7.4” value in series [4] came out at 20.3.

Regarding `CSCC[C@@H]1NC(=O)[C@@H]2CSCCC(=O)N3CN(CN(C3)C(=O)CCSC[C@H](NC(=O)CC[C@H](C(=O)O)N3CCN(CC(=O)O)CCN(CC(=O)O)CC3)C(=O)N3CCC[C@H]3C(=O)N[C@@H](Cc3cccc4ccccc34)C(=O)N[C@H](CC(=O)O)C(=O)N2)C(=O)CCSC[C@@H](C(N)=O)NC(=O)[C@H](Cc2c[nH]c3ccccc23)NC(=O)[C@@H]2C[C@@H](O)CN2C(=O)[C@@H]2CCCN2C(=O)[C@H]([C@@H](C)O)NC(=O)[C@H](CO)NC(=O)[C@H](Cc2c[nH]c3ccccc23)NC(=O)[C@H](CC(=O)O)NC(=O)[C@H](CCCCNC(=N)N)NC1=O` [[^64Cu]Cu-1e, metal not drawn], the results for the half-life in series [5] (Blood half life fast [min]), in series [5] (Blood half life slow [min]) and in series [6] were 1.21 ± 0.21 min, 32.5 ± 3.08 min and 218 min, respectively. The molecule further had a logD in series [2] (pH 7.4, logD 7.4) of -2.74.

As to `CCCC[C@@H]1NC(=O)[C@@H]2CSCCC(=O)N3CN(CN(C3)C(=O)CCSC[C@H](NC(=O)CC[C@H](C(=O)O)N3CCN(CC(=O)O)CCN(CC(=O)O)CC3)C(=O)N3CCC[C@H]3C(=O)N[C@@H](Cc3cccc4ccccc34)C(=O)N[C@H](CC(=O)O)C(=O)N2)C(=O)CCSC[C@@H](C(N)=O)NC(=O)[C@H](Cc2c[nH]c3ccccc23)NC(=O)[C@@H]2C[C@@H](O)CN2C(=O)[C@@H]2CCCN2C(=O)[C@H]([C@@H](C)O)NC(=O)[C@H](CO)NC(=O)[C@H](Cc2c[nH]c3ccccc23)NC(=O)[C@H](CC(=O)O)NC(=O)[C@H](CCCCNC(=N)N)NC1=O` [[^64Cu]Cu-3a, metal not drawn] (X1-CP[1Nal][dD]C[Nle][hArg]DWSTP[Hyp]WC-NH2; linker 1-5-15 via TATA), in series [7], the “Percent fast [%]” value is given as 85.43 ±1.50%, the “body retention at 2 h p.i.” value is on record as 70%, the “kidney uptake (SUVmean) at 2 h p.i.” value was 25 and the “time of highest tumor uptake” value is recorded as “≈ 6 min”. The molecule also yielded a half-life in series [5] (Blood half life fast [min]) of 1.24 ± 0.15 min. For the same molecule, the half-life in series [5] (Blood half life slow [min]) turned out to be 38.2 ± 2.68 min. In series [2] (pH 7.4, logD 7.4), this molecule displayed a pH-dependent lipophilicity (logD) of -2.53. This molecule also had a half-life in series [6] of 1040 min.

In the case of `C[Se]CC[C@@H]1NC(=O)[C@@H]2CSCCC(=O)N3CN(CN(C3)C(=O)CCSC[C@H](NC(=O)CC[C@H](C(=O)O)N3CCN(CC(=O)O)CCN(CC(=O)O)CC3)C(=O)N3CCC[C@H]3C(=O)N[C@@H](Cc3cccc4ccccc34)C(=O)N[C@H](CC(=O)O)C(=O)N2)C(=O)CCSC[C@@H](C(N)=O)NC(=O)[C@H](Cc2c[nH]c3ccccc23)NC(=O)[C@@H]2C[C@@H](O)CN2C(=O)[C@@H]2CCCN2C(=O)[C@H]([C@@H](C)O)NC(=O)[C@H](CO)NC(=O)[C@H](Cc2c[nH]c3ccccc23)NC(=O)[C@H](CC(=O)O)NC(=O)[C@H](CCCCNC(=N)N)NC1=O` [[^64Cu]Cu-5, metal not drawn] (X1-CP[1Nal][dD]C[SeMet][hArg]DWSTP[Hyp]WC-NH2; linker 1-5-15 via TATA), the logD in series [2] (^64Cu-labeled ligand, n-octanol/PBS pH 7.4, ±SD, read-out: logD 7.4) is -2.37. Besides, the half-life is 22.8 min in series [6] (half-life of intact radiolabeled peptide (T1/2), 0.0012% H2O2, 25 °C, one-phase decay) and 23 min in series [6] (half-life of intact radiolabeled peptide, 0.0012% H2O2).

As to `C[Se]CC[C@@H]1NC(=O)[C@@H]2CSCCC(=O)N3CN(CN(C3)C(=O)CCSC[C@H](NC(=O)CC[C@H](C(=O)O)N3CCN(CC(=O)O)CCN(CC(=O)O)CC3)C(=O)N3CCC[C@H]3C(=O)N[C@@H](Cc3cccc4ccccc34)C(=O)N[C@H](CC(=O)O)C(=O)N2)C(=O)CCSC[C@@H](C(N)=O)NC(=O)[C@H](Cc2c[nH]c3ccccc23)NC(=O)[C@@H]2C[C@@H](O)CN2C(=O)[C@@H]2CCCN2C(=O)[C@H]([C@@H](C)O)NC(=O)[C@H](CO)NC(=O)[C@H](Cc2c[nH]c3ccccc23)NC(=O)[C@H](CC(=O)O)NC(=O)[C@H](CCCCNC(=N)N)NC1=O` [compound 5] (X1-CP[1Nal][dD]C[SeMet][hArg]DWSTP[Hyp]WC-NH2; linker 1-5-15 via TATA), the “logD 7.4” value in series [2] (^64Cu-labeled ligand, n-octanol/PBS pH 7.4, ±SD) is listed as “–2.37 (±0.07)”. The Hill coefficient n in series [3] was 1.69. The “CHI IAM7.4” value in series [4] worked out at 19.5.

With `CSCC[C@@H]1NC(=O)[C@@H]2CSCCC(=O)N3CN(CN(C3)C(=O)CCSC[C@H](NC(=O)CC[C@H](C(=O)O)N3CCN(CC(=O)O)CCN(CC(=O)O)CC3)C(=O)N3CCC[C@H]3C(=O)N[C@@H](Cc3cccc4ccccc34)C(=O)N[C@H](CC(=O)O)C(=O)N2)C(=O)CCSC[C@@H](C(N)=O)NC(=O)[C@H](Cc2c[nH]c3ccccc23)NC(=O)[C@@H]2C[C@@H](O)CN2C(=O)[C@@H]2CCCN2C(=O)[C@H]([C@@H](C)O)NC(=O)[C@H](CO)NC(=O)[C@H](Cc2c[nH]c3ccccc23)NC(=O)[C@H](CC(=O)O)NC(=O)[C@H](CCCNC(=N)N)NC1=O` [compound 10] (X1-CP[1Nal][dD]CMRDWSTP[Hyp]WC-NH2; linker 1-5-15 via TATA), in series [1], the kon came to 1.11e+06 M⁻¹ s⁻¹ and the koff was determined as 0.00278 s⁻¹. Moreover, the Hill coefficient n in series [3] worked out at 2.05. For the same molecule, the “CHI IAM7.4” value in series [4] is recorded as 19.9.

As usually defined, the logD is the decadic logarithm of the distribution of all forms, ionised or not, between an organic phase and buffer at a given pH. What is called half-life is the time needed for the level to fall by half in the phase considered. A low value points to fast loss.

These data come from PMC12557367, ““Precision on Two Wheels”–Structural Refinement of ^64Cu- and ^68Ga-Labeled Bicyclic Peptides Targeting Nectin‑4 for Improved Tumor Imaging: From Preclinical Development to First-in-Human Application” (Journal of Medicinal Chemistry, 2025).
